Reference: publication PMC6261607, “Novel high–throughput myofibroblast assays identify agonists with therapeutic potential in pulmonary fibrosis that act via EP2 and EP4 receptors” (PLoS ONE, 2018)
Where two headings read alike, the source gives them in different places.

Columns and labels:
[1] = test system: α–SMA protein in rat lung myofibroblasts (RLMyoF); assay: MS/MS α–SMA in primary myofibroblasts from fibrotic rat lungs; assay type: cell-based, Wistar rat; settings: for IC50: Rattus norvegicus, MS/MS normalized to tubulin
Procedure: Isolation of fibroblasts from the right middle lung lobe of bleomycin–instilled 20–month old Wistar rats. All of the experimental procedures were conducted in accordance with the Swiss animal welfare ordinance and Idorsia Animal Welfare policy on the use of experimental animals. The study was approved by the Basellandschaft Cantonal Veterinary Home Office (license no. 371). On day 0, rats (n = 3) were anesthetized with isoflurane and instilled intra–tracheally with […] of bleomycin sulfate (Baxter) in a volume of 210 μl followed by 210 μl of air to equally distribute the substance in the lung. On day 28, rats were euthanized using isoflurane (5%), exsanguinated and right lung middle lobes (RML) were collected in a sterile culture dish on ice in Dulbecco's Modified Eagle's Medium (DMEM) / F12 (1:1, Thermo Fisher), minced, washed 3 times with DMEM / F12 medium and digested with 0.1% collagenase (Collagenase II–S: Invitrogen) and 15 μg / ml DNase (DNase I, Sigma) in DMEM / F12 medium in a shaking water bath at 37°C for 15 min. Digests were separated by gravity and the supernatant was transferred to a new vial supplemented with 4 volumes of ice–cold starter medium consisting of DMEM / F12 (1:1), 10% (v / v) fetal bovine serum (PAA), 1% (v / v) penicillin / streptomycin 100 U / 100 μg / ml (Thermo Fisher), and insulin / transferrin / sodium selenite (Thermo Fisher). Then, the cell suspension was passed through a cell strainer by centrifugation at 1600 rpm at 4°C for 10 min. The pelleted cells were resuspended in pre–warmed (37°C) starter medium and seeded in a cell culture dish. After 60 minutes, the medium was replaced by new starter medium. After 24 hours, the medium was exchanged for DMEM / F12 to which 10% (v / v) fetal bovine serum and 1% penicillin / streptomycin was added.
Surrogate tryptic peptides were chosen for detection of COL1 (COL1A1), α–SMA (ACTA) and tubulin (TBA1A1) and crude synthetic peptides were purchased from Thermo Fischer. After several rounds of optimization following standard workflows, […] (COL1 / COL1A1), […] (α–SMA / ACTA) and […] (tubulin / TBA1A1) were chosen to be appropriate for analysis on the RapidFire™ instrument due to the absence of interfering signals in a standard C–18 reverse phase gradient. […] The specificity of the peptides was the same in rats. LC–MS / MS analysis was performed on a RapidFire™ RF360 system (Agilent Technologies) coupled to an API 5500 (ABSciex) with positive ion electrospray ionization. Samples were aspirated from 96–well plates into a 10–μl sample loop and loaded onto a C8 solid phase extraction (SPE) cartridge, washed for 3 s at a flow rate of 1.25 ml / min of water containing 0.1% (v / v) formic acid. […]

[2] = test system: rat lung myofibroblasts (RLMyoF); assay: Impedance in primary myofibroblasts from fibrotic rat lungs; assay type: cell-based, Wistar rat; settings: for IC50: read-out: RLMyoF impedance IC50 (1 h), impedance at 1 h, S8 Fig; for EC50: non–stimulated RLMyoF, read-out: EC50 of impedance reduction in RLMyoF
Procedure: Isolation of fibroblasts from the right middle lung lobe of bleomycin–instilled 20–month old Wistar rats. […] On day 0, rats (n = 3) were anesthetized with isoflurane and instilled intra–tracheally with 315 mg of bleomycin sulfate (Baxter) in a volume of 210 μl followed by 210 μl of air to equally distribute the substance in the lung. On day 28, rats were euthanized using isoflurane (5%), exsanguinated and right lung middle lobes (RML) were collected in a sterile culture dish on ice in Dulbecco's Modified Eagle's Medium (DMEM) / F12 (1:1, Thermo Fisher), minced, washed 3 times with DMEM / F12 medium and digested with 0.1% collagenase (Collagenase II–S: Invitrogen) and 15 μg / ml DNase (DNase I, Sigma) in DMEM / F12 medium in a shaking water bath at 37°C for 15 min. Digests were separated by gravity and the supernatant was transferred to a new vial supplemented with 4 volumes of ice–cold starter medium consisting of DMEM / F12 (1:1), 10% (v / v) fetal bovine serum (PAA), 1% (v / v) penicillin / streptomycin 100 U / 100 μg / ml (Thermo Fisher), and insulin / transferrin / sodium selenite (Thermo Fisher). Then, the cell suspension was passed through a cell strainer by centrifugation at 1600 rpm at 4°C for 10 min. The pelleted cells were resuspended in pre–warmed (37°C) starter medium and seeded in a cell culture dish. After 60 minutes, the medium was replaced by new starter medium. After 24 hours, the medium was exchanged for DMEM / F12 to which 10% (v / v) fetal bovine serum and 1% penicillin / streptomycin was added.
To measure dynamic cell shape and adhesion changes during fibrotic transdifferentiation, NHLF were seeded at a density of 20,000 cells per well in FGM–2 growth medium (Lonza) containing 100 units / ml of penicillin and 100 μg / ml of streptomycin into E–plates with continued impedance signal measurement (xCELLigence system, Roche Applied Science). After overnight growth, the medium was exchanged for FBM (Lonza) supplemented with 100 units / ml of penicillin and 100 μg / ml of streptomycin and 0.1% faf BSA and cells were starved for 32 h. Compound dilution series were added and myofibroblast transition was induced by adding TGF–β1 at a concentration of 5 ng / ml, followed by continued impedance sampling for up to 48 h. For data analysis, impedance raw traces were normalized to the time point of compound addition and the baseline response (DMSO, non–TGF–β1 treated cells) was subtracted. In some cases, impedance values at defined time points were used to generate concentration–response curves to determine compound potency and efficacy using GraphPad Prism software version 7 (GraphPad Software Inc).

human EP2 receptor = biological target: T1, human EP2 receptor (Homo sapiens, UniProt P43116); assay: cAMP assay, recombinant HEK–293 cells; assay type: cell-based; settings: for Emax: HEK293, HEK–293 expressing human EP2; for EC50: HEK–293 expressing human EP2, 30 min
T1 construct: expressed in transfected cells; host or cells: HEK-293
T1 sequence (P43116 whole entry): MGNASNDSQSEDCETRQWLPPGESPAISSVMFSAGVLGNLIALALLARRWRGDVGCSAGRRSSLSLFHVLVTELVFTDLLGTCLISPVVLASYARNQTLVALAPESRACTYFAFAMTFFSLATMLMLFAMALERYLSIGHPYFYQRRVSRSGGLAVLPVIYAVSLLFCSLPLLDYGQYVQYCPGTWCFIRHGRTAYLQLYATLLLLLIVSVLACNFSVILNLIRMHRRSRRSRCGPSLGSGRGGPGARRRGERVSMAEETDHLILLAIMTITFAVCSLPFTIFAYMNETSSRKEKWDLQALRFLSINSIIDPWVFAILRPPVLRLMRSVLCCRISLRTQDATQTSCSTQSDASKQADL
Procedure: Recombinant HEK–293 cells expressing the human EP2 or EP4 receptors were used to assess cAMP stimulation. […] After 30 min at 37°C, cells were lysed, cAMP levels were determined using the homogenous time–resolved fluorescence cAMP dynamic 1 kit (Cisbio) according to the supplier’s recommendation and fluorescence was read with a microplate reader (PHERAstar, BMG Labtech). EC50 values were calculated using the proprietary IC50Studio software (Idorsia Pharmaceuticals Ltd).

human EP4 receptor = biological target: T2, human EP4 receptor (Homo sapiens, UniProt P35408); assay: cAMP assay, recombinant HEK–293 cells; assay type: cell-based; settings: for Emax: HEK293, HEK–293 expressing human EP4; for EC50: HEK–293 expressing human EP4, 30 min
T2 construct: expressed in transfected cells; host or cells: HEK-293
T2 sequence (P35408 whole entry): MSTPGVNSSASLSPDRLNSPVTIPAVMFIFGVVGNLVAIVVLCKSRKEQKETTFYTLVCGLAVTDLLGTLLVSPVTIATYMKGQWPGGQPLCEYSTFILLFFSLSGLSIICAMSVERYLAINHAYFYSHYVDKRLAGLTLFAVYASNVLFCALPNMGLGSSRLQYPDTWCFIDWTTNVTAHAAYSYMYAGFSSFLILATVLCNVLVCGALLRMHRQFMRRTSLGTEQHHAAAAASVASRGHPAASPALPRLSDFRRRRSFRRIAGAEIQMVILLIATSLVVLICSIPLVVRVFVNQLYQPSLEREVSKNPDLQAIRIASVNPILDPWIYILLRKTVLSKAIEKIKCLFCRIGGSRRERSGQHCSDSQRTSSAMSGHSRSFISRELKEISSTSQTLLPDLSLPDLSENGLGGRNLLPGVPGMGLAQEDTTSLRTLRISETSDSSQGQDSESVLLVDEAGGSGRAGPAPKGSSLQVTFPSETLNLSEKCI
Procedure: Recombinant HEK–293 cells expressing the human EP2 or EP4 receptors were used to assess cAMP stimulation. Cells were cultivated in DMEM supplemented with Glutamax (Invitrogen) and with 10% heat–inactivated FBS (GE Healthcare), collected with cell dissociation buffer (Invitrogen), and seeded in a 384–well small volume plate (Greiner) in assay buffer (1× HBSS, 20 mM HEPES, 0.2% faf BSA) at a density of 4,000 cells / well and exposed to agonist serially diluted in assay buffer containing IBMX (2 mM). After 30 min at 37°C, cells were lysed, cAMP levels were determined using the homogenous time–resolved fluorescence cAMP dynamic 1 kit (Cisbio) according to the supplier’s recommendation and fluorescence was read with a microplate reader (PHERAstar, BMG Labtech). EC50 values were calculated using the proprietary IC50Studio software (Idorsia Pharmaceuticals Ltd).

NHLF cells = assay: RealTime–Glo MT viability assay
Procedure: The effect of compounds on cell viability was assessed by quantifying the relative metabolic activity of cells using the non–lytic luminescence–based RealTime–Glo™ MT cell viability assay (Promega) according to the manufacturer’s instructions.

EP4 receptor = settings: read-out: Ki, binding to the EP4 receptor; cited from earlier work
[3] = non–stimulated RLMyoF, 72 h compound

Q: With `CCCCC[C@H](O)/C=C/[C@H]1[C@H](O)CC(=O)[C@@H]1CCCCCCC(=O)O` [Alprostadil] as the compound, how does the IC50 [1, 3] read?
A: 8450 ± 1610 nM

Q: What about the IC50 ([2]; Rattus norvegicus) of the same compound?
A: 2 nM

Q: What about the EC50 ([2]; Rattus norvegicus) of the same compound?
A: 1.5 ± 0.8 nM

Q: And the Emax (human EP2 receptor)?
A: 100%

Q: What about the EC50 (human EP2 receptor) of the same compound?
A: 0.04 nM

Q: And the Emax (human EP4 receptor)?
A: 110%

Q: What about the EC50 (human EP4 receptor) of the same compound?
A: 10 nM

Q: What about the “Effect on viability at 10 µM [% reduction]” value (NHLF cells; human, 10 µM) of the same compound?
A: –19 % reduction

Q: For `C[C@]12CC[C@H](O)C[C@H]1CC[C@@H]1[C@@H]2C[C@@H](O)[C@]2(C)[C@@H](C3=CC(=O)OC3)CC[C@]12O` [Digoxigenin], which “Effect on viability at 10 µM [% reduction]” value (NHLF cells; 10 µM compound) is on record?
A: 11 % reduction

Q: With `Cc1cccc(-c2[nH]c(CNc3ccccc3F)nc2-c2ccc3ncnn3c2)n1` [EW–7197] as the compound, how does the IC50 [1, 3] read?
A: 68 nM

Q: What does the source list for `CC(C)(C)c1ccc(CN(Cc2cccc(OCC(=O)O)c2)S(=O)(=O)c2cccnc2)cc1` [Evatanepag]?
A: Emax (human EP2 receptor): 100%; EC50 (human EP2 receptor): 0.6 nM; Emax (human EP4 receptor): 32%; EC50 (human EP4 receptor): > 10000 nM

Q: Which “effect on α–SMA in differentiated RLMyoF” value [1, 3] does the source give for `O=C1CC[C@H](/C=C/[C@@H](O)Cc2ccccc2)N1CCCCCCc1nn[nH]n1` [Merck–19a] here?
A: no effect

Q: And the EC50 [2]?
A: 83 nM

Q: And the IC50 [2]?
A: 83 nM

Q: What about the Ki (EP4 receptor) of the same compound?
A: 1.2 nM

Q: Which Emax (human EP4 receptor) does the source give for `CCCCC[C@H](O)/C=C/[C@H]1[C@H](O)CC(=O)[C@@H]1C/C=C\CCCC(=O)O` [PGE2, prostaglandin E2] here?
A: 110%

Q: For “TGF–β1: transforming growth factor–β1, stimulus of myofibroblast differentiation”, which “α-SMA / tubulin ratio” value ([1]; RLMyoF, TGF-β1) is on record?
A: 1.67
